Where a name gives a salt, the structure may show the parent alone.
Key:
Experiment in all cases: glasshouse herbicide spray test, % weed control, adjuvant with glyphosate potassium salt
Assay type in all cases: in vivo
Conditions in all cases: 19 days after treatment
[1] = system: Solanum nigra
Experimental: (§1) The compound of Synthesis Example SE1 was tested as an adjuvant with glyphosate potassium salt, mixing the glyphosate and adjuvant in a tank mix using concentrations of glyphosate from 0.125 to 2 g.l-1 and of adjuvant from 0.003125 to 0.2% v/v. The tank mixes were sprayed as a herbicide on a variety of test species at an application rate of 200 l.ha^−1 to give application rates of glyphosate of from 25 to 400 g (active ingredient).ha^−1. The plants were grown in a warm glasshouse and assessed 19 days after treatment for % control—the mean of three replicates for visually assessed % weed control, relative to unsprayed plants of each species in the same test.
(§2) Example AE1 was repeated but using the compound made in Synthesis Example SE4 as the adjuvant.

[2] = system: Portulaca oleracea
Experimental: as §1, §2

[3] = system: Sida Spinosa
Experimental: as §1, §2

[4] = system: Echinochloa crus-galli
Experimental: as §1, §2

[5] = system: Sorghum halepense
Experimental: as §1, §2

[6] = system: Abutilon Theophrasti
Experimental: as §1, §2

[7] = glyphosate 50 g ai/ha, adjuvant 0.003125 % v/v
[8] = glyphosate 50 g ai/ha, adjuvant 0.0125 % v/v
[9] = glyphosate 50 g ai/ha, adjuvant 0.05 % v/v
[10] = glyphosate 50 g ai/ha, adjuvant 0.2 % v/v
[11] = glyphosate 100 g ai/ha, adjuvant 0.003125 % v/v
[12] = glyphosate 100 g ai/ha, adjuvant 0.0125 % v/v
[13] = glyphosate 100 g ai/ha, adjuvant 0.05 % v/v
[14] = glyphosate 100 g ai/ha, adjuvant 0.2 % v/v
[15] = glyphosate 200 g ai/ha, adjuvant 0.003125 % v/v
[16] = glyphosate 200 g ai/ha, adjuvant 0.0125 % v/v
[17] = glyphosate 200 g ai/ha, adjuvant 0.05 % v/v
[18] = glyphosate 200 g ai/ha, adjuvant 0.2 % v/v
[19] = glyphosate 400 g ai/ha, adjuvant 0.003125 % v/v
[20] = glyphosate 400 g ai/ha, adjuvant 0.0125 % v/v
[21] = glyphosate 400 g ai/ha, adjuvant 0.05 % v/v
[22] = glyphosate 400 g ai/ha, adjuvant 0.2 % v/v
[23] = glyphosate 25 g ai/ha, adjuvant 0.003125 % v/v
[24] = glyphosate 25 g ai/ha, adjuvant 0.0125 % v/v
[25] = glyphosate 25 g ai/ha, adjuvant 0.05 % v/v
[26] = glyphosate 25 g ai/ha, adjuvant 0.2 % v/v
[27] = glyphosate 50 g ai/ha, adjuvant 0 % v/v
[28] = glyphosate 100 g ai/ha, adjuvant 0 % v/v
[29] = glyphosate 200 g ai/ha, adjuvant 0 % v/v
[30] = glyphosate 400 g ai/ha, adjuvant 0 % v/v
[31] = glyphosate 25 g ai/ha, adjuvant 0 % v/v

Random 8-ethoxylate-2-propoxylate of N-methyl glucamine C8/C10 glycidyl ether [SE1]
% control SOLNI [1, 7]: 37%
% control SOLNI [1, 8]: 35%
% control SOLNI [1, 9]: 48%
% control SOLNI [1, 10]: 50%
% control SOLNI [1, 11]: 62%
% control SOLNI [1, 12]: 68%
% control SOLNI [1, 13]: 68%
% control SOLNI [1, 14]: 77%
% control SOLNI [1, 15]: 80%
% control SOLNI [1, 16]: 81%
% control SOLNI [1, 17]: 81%
% control SOLNI [1, 18]: 79%
% control SOLNI [1, 19]: 80%
% control SOLNI [1, 20]: 81%
% control SOLNI [1, 21]: 79%
% control SOLNI [1, 22]: 82%
% control POROC [2, 7]: 7%
% control POROC [2, 8]: 4%
% control POROC [2, 9]: 12%
% control POROC [2, 10]: 30%
% control POROC [2, 11]: 8%
% control POROC [2, 12]: 9%
% control POROC [2, 13]: 18%
% control POROC [2, 14]: 37%
% control POROC [2, 15]: 23%
% control POROC [2, 16]: 20%
% control POROC [2, 17]: 45%
% control POROC [2, 18]: 64%
% control POROC [2, 19]: 42%
% control POROC [2, 20]: 43%
% control POROC [2, 21]: 60%
% control POROC [2, 22]: 73%
% control SIDSP [3, 7]: 30%
% control SIDSP [3, 8]: 38%
% control SIDSP [3, 9]: 42%
% control SIDSP [3, 10]: 31%
% control SIDSP [3, 11]: 33%
% control SIDSP [3, 12]: 48%
% control SIDSP [3, 13]: 48%
% control SIDSP [3, 14]: 55%
% control SIDSP [3, 15]: 63%
% control SIDSP [3, 16]: 48%
% control SIDSP [3, 17]: 72%
% control SIDSP [3, 18]: 79%
% control SIDSP [3, 19]: 79%
% control SIDSP [3, 20]: 73%
% control SIDSP [3, 21]: 83%
% control SIDSP [3, 22]: 78%
% control ECHCG [4, 23]: 15%
% control ECHCG [4, 24]: 10%
% control ECHCG [4, 25]: 22%
% control ECHCG [4, 26]: 37%
% control ECHCG [4, 7]: 48%
% control ECHCG [4, 8]: 47%
% control ECHCG [4, 9]: 58%
% control ECHCG [4, 10]: 70%
% control ECHCG [4, 11]: 85%
% control ECHCG [4, 12]: 82%
% control ECHCG [4, 13]: 84%
% control ECHCG [4, 14]: 89%
% control ECHCG [4, 15]: 92%
% control ECHCG [4, 16]: 90%
% control ECHCG [4, 17]: 93%
% control ECHCG [4, 18]: 97%
% control SORHA [5, 23]: 17%
% control SORHA [5, 24]: 7%
% control SORHA [5, 25]: 8%
% control SORHA [5, 26]: 45%
% control SORHA [5, 7]: 40%
% control SORHA [5, 8]: 22%
% control SORHA [5, 9]: 20%
% control SORHA [5, 10]: 84%
% control SORHA [5, 11]: 90%
% control SORHA [5, 12]: 81%
% control SORHA [5, 13]: 72%
% control SORHA [5, 14]: 92%
% control SORHA [5, 15]: 93%
% control SORHA [5, 16]: 91%
% control SORHA [5, 17]: 91%
% control SORHA [5, 18]: 96%
% control ABUTH [6, 7]: 33%
% control ABUTH [6, 8]: 33%
% control ABUTH [6, 9]: 38%
% control ABUTH [6, 10]: 27%
% control ABUTH [6, 11]: 53%
% control ABUTH [6, 12]: 35%
% control ABUTH [6, 13]: 43%
% control ABUTH [6, 14]: 42%
% control ABUTH [6, 15]: 62%
% control ABUTH [6, 16]: 66%
% control ABUTH [6, 17]: 66%
% control ABUTH [6, 18]: 70%
% control ABUTH [6, 19]: 81%
% control ABUTH [6, 20]: 82%
% control ABUTH [6, 21]: 79%
% control ABUTH [6, 22]: 83%

O=C(O)CNCP(=O)(O)O [Glyphosate, glyphosate potassium salt, reference compound]
% control SOLNI [1, 27]: 37%
% control SOLNI [1, 28]: 65%
% control SOLNI [1, 29]: 77%
% control SOLNI [1, 30]: 78%
% control POROC [2, 27]: 3%
% control POROC [2, 28]: 10%
% control POROC [2, 29]: 22%
% control POROC [2, 30]: 38%
% control SIDSP [3, 27]: 30%
% control SIDSP [3, 28]: 35%
% control SIDSP [3, 29]: 58%
% control SIDSP [3, 30]: 75%
% control ECHCG [4, 31]: 21%
% control ECHCG [4, 27]: 47%
% control ECHCG [4, 28]: 67%
% control ECHCG [4, 29]: 82%
% control SORHA [5, 31]: 8%
% control SORHA [5, 27]: 47%
% control SORHA [5, 28]: 79%
% control SORHA [5, 29]: 82%
% control ABUTH [6, 29]: 53%
% control ABUTH [6, 30]: 73%
